# Reference: article PMC6145841 (Biochemistry, 2018)
# pEC50: −log10 of the molar value. Square brackets hold non-standard residues; d marks the D form. Peptide text beside a SMILES is read from it.
# Columns and labels:
# [1] = target: T1, ComD1 receptor (Streptococcus pneumoniae serotype 2, UniProt A0A0H2ZM50); assay: Beta-galactosidase reporter dose response assay, group I strain D39pcomX::lacZ; type: cell-based
# [2] = target: ComD2 receptor (Streptococcus pneumoniae serotype 4, UniProt A0A0H2US84); type: cell-based
# [3] = target: T1, ComD1 receptor; conditions: Table 1; ref [26]; cited from earlier work
compound,measurement,setting,value
CC[C@H](C)[C@H](NC(=O)[C@H](C)NC(=O)[C@H](C)NC(=O)[C@H](C)NC(=O)[C@H](CCCNC(=N)N)NC(=O)[C@H](CCSC)NC(=O)[C@@H](N)CCC(=O)O)C(=O)N[C@H](C(=O)N[C@@H](CC(C)C)C(=O)N[C@H](CC(=O)O)C(=O)N[C@@H](Cc1ccccc1)C(=O)N[C@@H](CC(C)C)C(=O)N[C@@H](Cc1ccccc1)C(=O)N[C@@H](C)C(=O)N[C@@H](CCCNC(=N)N)C(=O)N[C@@H](CCCCN)C(=O)N[C@@H](CCCCN)C(=O)O)[C@@H](C)CC [CSP2-I4AS5AR6Ad10L14A] (H-EMRAAAIIL[dD]FLFARKK-OH),pEC50,[1],< 6.00
same,pEC50,[2],7.06
EMALSKFFRDFILQRKK [CSP1-R3A],activity against the ComD1 receptor (in words),[3],complete loss of activity
